Counter-ions that a name gives are not always drawn.

Data on 35 compounds can be found in US20230087118A1, “IMIDAZO[1,2-a][sequence] DERIVATIVES AND THEIR USE IN THE TREATMENT OF DISEASE” (priority 2019, published 2023).

One assay addresses T1, IRAK4 (Homo sapiens, UniProt Q9NWZ3).
T1 sequence (Q9NWZ3 1-460): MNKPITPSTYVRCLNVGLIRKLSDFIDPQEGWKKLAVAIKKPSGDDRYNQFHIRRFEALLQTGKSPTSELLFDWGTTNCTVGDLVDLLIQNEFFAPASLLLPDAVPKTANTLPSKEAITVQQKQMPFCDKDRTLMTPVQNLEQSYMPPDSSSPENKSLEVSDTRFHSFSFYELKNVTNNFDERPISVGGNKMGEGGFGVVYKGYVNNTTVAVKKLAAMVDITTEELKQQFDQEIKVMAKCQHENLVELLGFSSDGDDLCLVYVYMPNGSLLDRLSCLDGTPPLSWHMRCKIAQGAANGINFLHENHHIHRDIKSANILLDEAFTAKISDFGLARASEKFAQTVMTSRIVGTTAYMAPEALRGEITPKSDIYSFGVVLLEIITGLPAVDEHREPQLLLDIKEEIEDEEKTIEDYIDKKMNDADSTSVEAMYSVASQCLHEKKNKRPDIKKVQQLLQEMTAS
Description: biochemical.
Details: not given
For the compound `CC(C)Oc1cc2nc([C@@]34CC[C@@H](C3)OC4)cn2cc1C(=O)Nc1ccn(C)n1` (single isomer, unassigned) [Example 580], the IC50 was 0.0017 µM. Consider `COc1ncccc1NC(=O)c1cn2cc(C34CC(C#N)(C3)C4)nc2cc1OC(C)C` [Example 403, 2-(3-Cyanobicyclo[1.1.1]pentan-1-yl)-7-isopropoxy-N-(2-methoxypyridin-3-yl)imidazo[1,2-a]pyridine-6-carboxamide], for which the midpoint of inhibition, the IC50, lay at 0.0008 µM.

Turning to `Cc1cnc2c(NC(=O)c3cn4cc(C56COC(C)(C5)C6)nc4c(F)c3OC3CCC3)cnn2c1` [Example 256, 7-Cyclobutoxy-8-fluoro-2-(1-methyl-2-oxabicyclo[2.1.1]hexan-4-yl)-N-(6-methylpyrazolo[1,5-a]pyrimidin-3-yl)imidazo[1,2-a]pyridine-6-carboxamide], the 50% inhibitory concentration (IC50) stood at 0.0009 µM. In the case of `CC(Oc1cc2nc(C34COC(C)(C3)C4)cn2cc1C(=O)Nc1cccc(C(F)F)n1)C(F)(F)F` (single isomer, unassigned) [Example 619], 0.0001 µM corresponded to half-maximal inhibition (IC50).

Compound `CC(C)Oc1cc2nc(C34CCC(C)(C3)OC4)cn2cc1C(=O)Nc1cccc(F)c1F` (centres unmarked) [Example 515, N-(2,3-difluorophenyl)-7-isopropoxy-2-(1-methyl-2-oxabicyclo[2.2.1]heptan-4-yl)imidazo[1,2-a]pyridine-6-carboxamide] had an IC50 of 0.0014 µM. With `COc1cccc(NC(=O)c2cn3cc(C45COC(C)(C4)C5)nc3cc2OC)n1` [Example 31], it took 0.015 µM to reach half-maximal inhibition (IC50). The same measure, in the same setting: with `CC(C)Oc1nc(C(=O)Nc2cccc(C(F)F)n2)cn2cc(C34COC(C)(C3)C4)nc12` [Example 336, N-(6-(difluoromethyl)pyridin-2-yl)-8-isopropoxy-2-(1-methyl-2-oxabicyclo[2.1.1]hexan-4-yl)imidazo[1,2-a]pyrazine-6-carboxamide] the figure was 0.0021 µM; with `CC12CC(c3cn4cc(C(=O)Nc5cccc(C(F)F)n5)nc(OCC(F)F)c4n3)(CO1)C2` [Example 344, 8-(2,2-Difluoroethoxy)-N-(6-(difluoromethyl)pyridin-2-yl)-2-(1-methyl-2-oxabicyclo[2.1.1]hexan-4-yl)imidazo[1,2-a]pyrazine-6-carboxamide], 0.0034 µM. Still for that read-out and setting: with `CC(C)Oc1cc2nc(C34CCC(C)(C3)OC4)cn2cc1C(=O)Nc1ccn(C(F)(F)F)n1` (centres unmarked) [Example 506, 7-Isopropoxy-2-(1-methyl-2-oxabicyclo[2.2.1]heptan-4-yl)-N-(1-(trifluoromethyl)-1H-pyrazol-3-yl)imidazo[1,2-a]pyridine-6-carboxamide] the figure was 0.0038 µM.

The compound `CCc1cccc(NC(=O)c2cn3cc(C4CCOCC4)nc3c(OC)n2)n1` [Example 86] showed an IC50 of 0.034 µM.

The compound `CC(C)Oc1cc2nc(C34CCC(C)(CC3)OC4)cn2cc1C(=O)Nc1cnn2cccnc12` [Example 572, 7-Isopropoxy-2-(1-methyl-2-oxabicyclo[2.2.2]octan-4-yl)-N-(pyrazolo[1,5-a]pyrimidin-3-yl)imidazo[1,2-a]pyridine-6-carboxamide] registered an IC50 of 0.0004 µM. Still for that read-out and setting: with `CC(C)Oc1cc2nc([C@]34CC[C@H](C3)OC4)cn2cc1C(=O)Nc1ccn(C)n1` (single isomer, unassigned) [Example 581] the figure was 0.0037 µM; with `CC(C)Oc1nc2nc(C34CCC(C)(CC3)OC4)cn2cc1C(=O)Nc1cccn(C(F)F)c1=O` [Example 384, N-(1-(difluoromethyl)-2-oxo-1,2-dihydropyridin-3-yl)-7-isopropoxy-2-(1-methyl-2-oxabicyclo[2.2.2]octan-4-yl)imidazo[1,2-a]pyrimidine-6-carboxamide], 0.0002 µM.

Regarding `Cc1ccn2ncc(NC(=O)c3cn4cc(C56COC(C)(C5)C6)nc4nc3OC(C)C)c2n1` [Example 374, 7-Isopropoxy-2-(1-methyl-2-oxabicyclo[2.1.1]hexan-4-yl)-N-(5-methyl-pyrazolo[1,5-a]pyrimidin-3-yl)imidazo[1,2-a]pyrimidine-6-carboxamide], it took 0.0014 µM to reach half-maximal inhibition (IC50). The same measure, in the same setting: with `CC12CCC(c3cn4cc(C(=O)Nc5ccn(CC#N)n5)c(OC5CCC5)cc4n3)(CO1)C2` (centres unmarked) [Example 532, N-(1-(cyanomethyl)-1H-pyrazol-3-yl)-7-cyclobutoxy-2-(1-methyl-2-oxabicyclo[2.2.1]heptan-4-yl)imidazo[1,2-a]pyridine-6-carboxamide] the figure was 0.0029 µM; with `CCOc1cc(C(=O)Nc2cccc(C(F)F)n2)cn2cc([C@@H]3CCCOC3)nc12` (single isomer, unassigned) [Example 54], 0.0065 µM. On the same count and under the same terms, with `CCOc1nc(C(=O)Nc2cccnc2OC)cn2cc([C@]34CC[C@](C)(C3)OC4)nc12` (single isomer, unassigned) [Example 604] the figure was 0.0003 µM. The same measure, in the same setting: next, `Cc1cnc2c(NC(=O)c3cn4cc(C56CCC(C5)OC6)nc4nc3OC(C)C)cnn2c1` (centres unmarked) [Example 433]: 0.0006 µM. Compound `CCOc1cc(C(=O)Nc2cccc(OC)n2)cn2cc(C3CCCOC3)nc12` (centres unmarked) [Example 53, 8-Ethoxy-N-(6-methoxypyridin-2-yl)-2-(tetrahydro-2H-pyran-3-yl)imidazo[1,2-a]pyridine-6-carboxamide] showed an IC50 of 0.0352 µM. Still for that read-out and setting: with `CC(C)Oc1cc2nc(C34CCC(C)(C3)OC4)cn2cc1C(=O)Nc1ccn(C)n1` (centres unmarked) [Example 414, 7-Isopropoxy-N-(1-methyl-1H-pyrazol-3-yl)-2-(1-methyl-2-oxabicyclo[2.2.1]heptan-4-yl)imidazo[1,2-a]pyridine-6-carboxamide] the figure was 0.0033 µM.

In the case of `COCCCc1cn2cc(C(=O)Nc3cccc(OC)n3)c(OC(C)C)cc2n1` [Example 103, 7-Isopropoxy-2-(3-methoxypropyl)-N-(6-methoxypyridin-2-yl)imidazo[1,2-a]pyridine-6-carboxamide], the midpoint of inhibition, the IC50, lay at 0.0032 µM. The same measure, in the same setting: next, `CC12CC(c3cn4cc(C(=O)Nc5cccc(C(F)F)n5)ncc4n3)(CO1)C2` [Example 334, N-(6-(Difluoromethyl)pyridin-2-yl)-2-(1-methyl-2-oxabicyclo[2.1.1]hexan-4-yl)imidazo[1,2-a]pyrazine-6-carboxamide]: 0.0599 µM; `CCn1cccc(NC(=O)c2cn3cc(C45CCC(C)(C4)OC5)nc3cc2OC2CCC2)c1=O` (centres unmarked) [Example 535, 7-Cyclobutoxy-N-(1-ethyl-2-oxo-1,2-dihydropyridin-3-yl)-2-(1-methyl-2-oxabicyclo[2.2.1]heptan-4-yl)imidazo[1,2-a]pyridine-6-carboxamide]: 0.0011 µM; `Cn1ccc(NC(=O)c2cn3cc(C45CCC(C)(C4)OC5)nc3cc2OC2CC2)n1` (centres unmarked) [Example 552]: 0.0097 µM.

On to `O=C(Nc1cccc(C(F)F)n1)c1cn2cc(C3CC3)nc2cc1OC1CCCC1` [Example 467, 7-(Cyclopentyloxy)-2-cyclopropyl-N-(6-(difluoromethyl)pyridin-2-yl)imidazo[1,2-a]pyridine-6-carboxamide], for which the IC50 stood at 0.001 µM. The same measure, in the same setting: next, `Cn1nc(NC(=O)c2cn3cc(C45CCC(C)(C4)OC5)nc3cc2OC2CCC2)cc1F` (centres unmarked) [Example 419, 7-Cyclobutoxy-N-(5-fluoro-1-methyl-1H-pyrazol-3-yl)-2-(1-methyl-2-oxabicyclo[2.2.1]heptan-4-yl)imidazo[1,2-a]pyridine-6-carboxamide]: 0.0033 µM; `COc1cc2nc(C3CCOCC3)cn2cc1C(=O)Nc1ccnc(C)c1OC` [Example 201]: 0.378 µM; `CCOc1nc(C(=O)Nc2cnn3cc(C)cnc23)cn2cc(C34COC(C)(C3)C4)nc12` [Example 498, 8-Ethoxy-2-(1-methyl-2-oxabicyclo[2.1.1]hexan-4-yl)-N-(6-methylpyrazolo[1,5-a]pyrimidin-3-yl)imidazo[1,2-a]pyrazine-6-carboxamide]: 0.0043 µM. Same read-out and setting: next, `CCOc1nc(C(=O)Nc2cccc(C(F)F)n2)cn2cc(C3CCCOC3)nc12` (centres unmarked) [Example 223]: 0.0022 µM. Same read-out and setting: next, `COc1cc2nc(C3CCOCC3)cn2cc1C(=O)Nc1cccn(C)c1=O` [Example 183]: 0.0069 µM; `CC(C)Oc1nc2nc(C34CCOC(C)(C3)C4)cn2cc1C(=O)Nc1cccc(C(F)(F)F)n1` [Example 237]: 0.0003 µM.

Staying with this assay, now noted: IRAK4 Biochemical Assay (1 mM ATP, 2 h) IC50 (μM), 1 mM ATP, 2 h, 100 pM IRAK4.
`CC(C)Oc1cc2nc(C34COC(C)(C3)C4)cn2cc1C(=O)Nc1cnn(C)n1` [Example 316, 7-Isopropoxy-N-(2-methyl-2H-1,2,3-triazol-4-yl)-2-(1-methyl-2-oxabicyclo[2.1.1]hexan-4-yl)imidazo[1,2-a]pyridine-6-carboxamide trifluoroacetate] came in with an IC50 of 0.005 µM. Regarding `CC12CC(c3cn4cc(C(=O)Nc5cccn(C(F)F)c5=O)c(OCC5(F)CCOCC5)cc4n3)(CO1)C2` [Example 456, N-(1-(difluoromethyl)-2-oxo-1,2-dihydropyridin-3-yl)-7-((4-fluorotetrahydro-2H-pyran-4-yl)methoxy)-2-(1-methyl-2-oxabicyclo[2.1.1]hexan-4-yl)imidazo[1,2-a]pyridine-6-carboxamide], 0.0071 µM corresponded to half-maximal inhibition (IC50). Still for that read-out and setting: next, `O=C(Nc1cccc(C(F)F)n1)c1cn2cc(C3CC3)nc2cc1OCC1CC2CCC1O2` (centres unmarked) [Example 470, 7-((7-Oxabicyclo[2.2.1]heptan-2-yl)methoxy)-2-cyclopropyl-N-(6-(difluoromethyl)pyridin-2-yl)imidazo[1,2-a]pyridine-6-carboxamide]: 0.0015 µM; `COc1ncccc1NC(=O)c1cn2cc(C34COC(C)(C3)C4)nc2cc1OC(F)F` [Example 332, 7-(Difluoromethoxy)-N-(2-methoxypyridin-3-yl)-2-(1-methyl-2-oxabicyclo[2.1.1]hexan-4-yl)imidazo[1,2-a]pyridine-6-carboxamide trifluoroacetate]: 0.0052 µM.

In general, IC50 refers to the point on the concentration scale where inhibition reaches its midpoint. Higher therefore signals weaker potency.
